The values below are quoted from earlier work in article PMC10011554, “BET inhibitor trotabresib in heavily pretreated patients with solid tumors and diffuse large B-cell lymphomas” (Nature Communications, 2023).

Like-named read-outs stand apart in the source and are kept apart here.

The test system of one series is U-2932 (DOX-R). The arrangement: method as in Report CC-90010-Pharm-1018. The note with it: Table 2, ref Report CC-90010-Pharm-1018, read-out: absolute IC50, proliferation; cited from earlier work.
For another series, the system named is WSU-DLCL2 (GCB DLBCL). The arrangement: method as in Report CC-90010-Pharm-1018. The note with it: WSU-DLCL2, Table 2, ref Report CC-90010-Pharm-1018; read-out: absolute IC50, proliferation; cited from earlier work.
For a further series, the system named is OCI-LY-10 (ABC DLBCL). Details: method as in Report CC-90010-Pharm-1018. The note with it: OCI-LY-10, Table 2, ref Report CC-90010-Pharm-1018; read-out: absolute IC50, proliferation; cited from earlier work.
The subject of another series is U-2932 (ABC DLBCL). Details: method as in Report CC-90010-Pharm-1018. The note with it: U-2932, Table 2, ref Report CC-90010-Pharm-1018; read-out: absolute IC50, proliferation; cited from earlier work.
A further series has as its system SU-DHL-4 (DOX-R). The arrangement: method as in Report CC-90010-Pharm-1018. The note with it: Table 2, ref Report CC-90010-Pharm-1018, read-out: absolute IC50, proliferation; cited from earlier work.
A further series relates to SU-DHL-4 (GCB DLBCL). Details: method as in Report CC-90010-Pharm-1018. The note with it: SU-DHL-4, Table 2, ref Report CC-90010-Pharm-1018; read-out: absolute IC50, proliferation; cited from earlier work.
The test system of the next series is WSU-DLCL2 (DOX-R). The arrangement: method as in Report CC-90010-Pharm-1018. The note with it: Table 2, ref Report CC-90010-Pharm-1018, read-out: absolute IC50, proliferation; cited from earlier work.
Another series relates to OCI-LY-10 (DOX-R). Details: method as in Report CC-90010-Pharm-1018. The note with it: Table 2, ref Report CC-90010-Pharm-1018, read-out: absolute IC50, proliferation; cited from earlier work.
For series [1] the following is noted: cited from earlier work.
A further series has as its system basal cell carcinoma. The note with it: cited from earlier work.
The test system of another series is GBM3 GBM PDX. Details: method as in Unpublished data from Celgene Corporation. The note with it: GBM3, TMZ 50 mg/kg IP x 3 Q2 weeks alone, ref Unpublished data from Celgene Corporation; cited from earlier work.
Series [2] relates to relapsed or refractory lymphomas. The note with it: cited from earlier work.
Details of series [3]: method as in Amorim, 2016. The note with it: ref Amorim, 2016; cited from earlier work.
Setting [4] is: ref ODOMZO European Public Assessment Report.

Turning to `COc1cccc2c1C(=O)c1c(O)c3c(c(O)c1C2=O)C[C@@](O)(C(=O)CO)C[C@@H]3O[C@H]1C[C@H](N)[C@H](O)[C@H](C)O1` [Doxorubicin, reference compound], the IC50 was 1870 nM with U-2932 (DOX-R); 10 nM in the series on WSU-DLCL2 (GCB DLBCL); 41 nM in the series with OCI-LY-10 (ABC DLBCL); 20 nM with U-2932 (ABC DLBCL); 3570 nM in the series on SU-DHL-4 (DOX-R); about 10 nM with SU-DHL-4 (GCB DLBCL). Further, the IC50 was 3270 nM in the series on WSU-DLCL2 (DOX-R) and 3660 nM with OCI-LY-10 (DOX-R).
In the case of `CS(=O)(=O)c1ccc(C(=O)Nc2ccc(Cl)c(-c3ccccn3)c2)c(Cl)c1` [vismodegib], the “subjects who withdrew from treatment due to adverse events” value in series [1] (at least 12 months follow up, ref Bassett-Seguin, 2015) is on record as 36%. In addition, in the series on basal cell carcinoma (locally advanced BCC, ref ERIVEDGE European Public Assessment Report), the response rate is 42.9%. For the same compound, the “independently reviewed response rate” value with basal cell carcinoma (metastatic BCC, ref ERIVEDGE European Public Assessment Report) is 30.3%. The “median duration of response” value in the series on basal cell carcinoma (ref ERIVEDGE European Public Assessment Report) is 7.6 months.
`Cc1c(C(=O)Nc2ccc(N3C[C@@H](C)O[C@@H](C)C3)nc2)cccc1-c1ccc(OC(F)(F)F)cc1` [sonidegib]: in series [1] (setting [4]), the “subjects discontinued for adverse reactions” value is on record as 28% and the “subjects with dose adjustments for adverse reactions” value was 32%. Moreover, the “independently reviewed response rate” value in the series on basal cell carcinoma (locally advanced BCC, ref Migden, 2015a) is recorded as 58%. Moreover, in the series with basal cell carcinoma (ref Migden, 2015a), the “LaBCC with investigator-assessed responses lasting at least six months” value was 39%.
With `Cn1nnc2c(C(N)=O)ncn2c1=O` [TMZ, temozolomide, reference compound], the TGI in the series with GBM3 GBM PDX is given as 3%.
As to `Cc1noc2c1-c1ccccc1C(c1ccc(Cl)cc1)=N[C@H]2CC(N)=O` [CPI-0610], the objective responses in [2] (out of 64 relapsed or refractory lymphomas, ref Blum, 2018) was 5 patients.
As to `Cc1sc2c(c1C)C(c1ccc(Cl)cc1)=N[C@@H](CC(=O)Nc1ccc(O)cc1)c1nnc(C)n1-2` [OTX-015], in series [3], the “Grade 3-4 thrombocytopenia” value was 58%, the “median time to thrombocytopenia nadir (Grade 4) from starting treatment” value was 18 days, the toxic effect anaemia is given as 91% and the toxic effect diarrhea is 47%. Further, in [3], the toxic effect fatigue is reported as 27%, the toxic effect nausea is given as 24%, the toxic effect neutropenia is reported as 51% and the toxic effect thrombocytopenia is listed as 96%.
As to `Cc1sc2c(c1C)C(c1ccc(Cl)cc1)=N[C@@H](CC(=O)NCCCN1CCN(C)CC1)c1nnc(C)n1-2` [RG6146], the ORR in series [2] (relapsed/refractory MYC-expressing DLBCL patients, ref Caimi, 2017) is listed as 11%.
